Starred links: 1 amine or outer side, 2 acyl side, 3 side chain; linkers in the order of their positions; H or OH if unused. Positions of bridges follow the written chain, without caps; N, C: chain ends. Non-standard residues stand in square brackets, D forms with d. Residues, ends and D or L forms follow the SMILES beside them. *: point of attachment. NMeF = CN[C@@H](Cc1ccccc1)C(=O)O; NMeI = CC[C@H](C)[C@H](NC)C(=O)O; NMeT = CN[C@H](C(=O)O)[C@@H](C)O; hPhe = N[C@@H](CCc1ccccc1)C(=O)O; NMeβAla = CN(CCC(=O)[*:2])[*:1]; NMeD = CN[C@@H](CC(=O)O)C(=O)O; NMeL = CN[C@@H](CC(C)C)C(=O)O; dNMeV = CN[C@@H](C(=O)O)C(C)C; NMeV = CN[C@H](C(=O)O)C(C)C; NMeAbu = CC[C@H](NC)C(=O)O; NMeA = CN[C@@H](C)C(=O)O; Piperidide = C1CCN(*)CC1; Abu = CC[C@H](N)C(=O)O; NBuGly = CCCCNCC(=O)O; βAla = NCCC(=O)O; Sar = CNCC(=O)O; tBu = CC(C)(C)*
Key:
[1] = Metabolic stability test: liver microsomal stability assay; type: in vitro ADME, mouse; conditions: mouse liver microsomes 0.5 mg protein/mL, compound 1 µM; for microsomal CLint at 1 µM: male, pH 7.4, presence of NADPH, read-out: Mouse Hepatic Microsome CLh,int NADPH(+); for Mouse Hepatic Microsome CLh,int NADPH(-): absence of NADPH
Caco-2 cells = assay: Membrane permeability test using Caco-2 cells with preincubation; type: in vitro ADME; conditions: Caco-2 cells, preincubation 20 to 24 hours; apical FaSSIF/HBSS 1% DMSO pH 6.0, basal HBSS 4% BSA pH 7.4; basal sample at 180 minutes
[2] = as above; type: in vitro ADME; conditions: Caco-2; preincubation 20 to 24 hours; Apical FaSSIF/HBSS pH 6.0, Basal HBSS 4% BSA pH 7.4; 180 minutes; read-out: Caco2 Papp

Compound | microsomal CLint at 1 µM [1] | Mouse Hepatic Microsome CLh,int NADPH(-) [1] | Caco2 Papp (10^-6 cm/sec) (Caco-2 cells) | Papp A→B [2]
CC[C@@H]1NC(=O)[C@H](CC(C)C)N(C)C(=O)[C@H](C)NC(=O)[C@@H]2CCCN2C(=O)[C@H](CC)N(C)C(=O)[C@H](CC(C)C)N(C)C(=O)CN(C)C(=O)[C@H](Cc2ccccc2)N(C)C(=O)[C@H]([C@@H](C)CC)NC(=O)CCN(C)C(=O)[C@H](C(C)C)N(C)C(=O)[C@H](COC(C)(C)C)NC(=O)[C@H](CC(C)C)N(C)C(=O)C[C@@H](C(=O)N2CCCCC2)N(C)C1=O [pd083] ([NMeL]S(tBu)[NMeV][NMeβAla]I[NMeF][Sar][NMeL][NMeAbu]PA[NMeL][Abu][NMeD]-Piperidide; lactam N-14) | 11.4 µL/min/mg | 7.3 µL/min/mg Protein | 0.04 10^-6 cm/sec | 0.04 ×10⁻⁶ cm/s
CC[C@H](C)[C@@H]1NC(=O)[C@H](CC(C)C)N(C)C(=O)[C@H](CC(C)C)N(C)C(=O)[C@H](C)N(C)C(=O)C[C@@H](C(=O)N2CCCCC2)N(C)C(=O)[C@H](C)N(C)C(=O)[C@H](CC(C)C)NC(=O)[C@H](C(C)C)N(C)C(=O)[C@H](CC(C)C)N(C)C(=O)CNC(=O)[C@H]([C@@H](C)CC)N(C)C(=O)[C@H](Cc2ccccc2)N(C)C(=O)[C@H](C)NC(=O)[C@H](Cc2ccccc2)N(C)C1=O [pd084] ([NMeA][NMeL][NMeL]I[NMeF]A[NMeF][NMeI]G[NMeL][NMeV]L[NMeA][NMeD]-Piperidide; lactam N-14) | 39 µL/min/mg | 37.8 µL/min/mg Protein | 0.21 10^-6 cm/sec | 0.21 ×10⁻⁶ cm/s
CC[C@H](C)[C@@H]1NC(=O)[C@H](CC(C)C)N(C)C(=O)CN(C)C(=O)C[C@@H](C(=O)N2CCCCC2)N(C)C(=O)CNC(=O)[C@H](C)N(C)C(=O)[C@H](CC)N(C)C(=O)[C@H](C(C)C)N(C)C(=O)[C@H](C)N(C)C(=O)[C@H](Cc2ccccc2)N(C)C(=O)[C@H](CC(C)C)NC(=O)[C@H](Cc2ccccc2)N(C)C(=O)[C@H](C(C)C)NC(=O)[C@H](CC(C)C)N(C)C1=O [pd085] ([Sar][NMeL]I[NMeL]V[NMeF]L[NMeF][NMeA][NMeV][NMeAbu][NMeA]G[NMeD]-Piperidide; lactam N-14) | 26.9 µL/min/mg | 28.9 µL/min/mg Protein | 0.17 10^-6 cm/sec | 0.17 ×10⁻⁶ cm/s
CC(C)C[C@@H]1NC(=O)[C@H](CC(C)C)N(C)C(=O)[C@H]([C@@H](C)O)NC(=O)[C@H](C(C)C)N(C)C(=O)[C@H](Cc2ccccc2)N(C)C(=O)[C@@H](C(C)C)NC(=O)C[C@@H](C(=O)N2CCCCC2)N(C)C(=O)[C@H](C)N(C)C(=O)[C@H](Cc2ccccc2)N(C)C(=O)[C@H](C)NC(=O)[C@H](COC(C)(C)C)NC(=O)[C@H](CC(C)C)N(C)C(=O)[C@H](C(C)C)NC(=O)CN(C)C1=O [pd086] ([dV][NMeF][NMeV]T[NMeL]L[Sar]V[NMeL]S(tBu)A[NMeF][NMeA][NMeD]-Piperidide; lactam N-14) | 20.1 µL/min/mg | 20.0 µL/min/mg Protein | 0.06 10^-6 cm/sec | 0.06 ×10⁻⁶ cm/s
CCCCN1CC(=O)N(C)[C@@H](CC(C)C)C(=O)N[C@@H]([C@@H](C)O)C(=O)N(C)[C@@H](C)C(=O)N2CCC[C@H]2C(=O)N[C@@H](CCc2ccccc2)C(=O)N[C@@H]([C@@H](C)CC)C(=O)N(C)[C@H](C(=O)N2CCCCC2)CC(=O)N(C)[C@@H](CC(C)C)C(=O)N[C@@H](COC(C)(C)C)C(=O)N(C)[C@@H](C(C)C)C(=O)N[C@@H]([C@@H](C)CC)C(=O)N2CCC[C@H]2C(=O)N[C@@H](C(C)C)C1=O [pd087] ([NMeL]S(tBu)[NMeV]IPV[NBuGly][NMeL]T[NMeA]P[hPhe]I[NMeD]-Piperidide; lactam N-14) | 31.8 µL/min/mg | 29.0 µL/min/mg Protein | <0.07 10^-6 cm/sec | < 0.07 ×10⁻⁶ cm/s
CC[C@@H]1NC(=O)[C@H](C(C)C)N(C)C(=O)[C@H](C(C)C)NC(=O)[C@H](C)N(C)C(=O)CCN(C)C(=O)[C@H](CCc2ccccc2)NC(=O)[C@H](CC(C)C)N(C)C(=O)[C@H]([C@@H](C)CC)NC(=O)CN(C)C(=O)C[C@@H](C(=O)N2CCCCC2)N(C)C(=O)[C@H](CC(C)C)NC(=O)[C@H](CC(C)C)N(C)C(=O)[C@H]([C@@H](C)O)NC(=O)[C@H](Cc2ccccc2)N(C)C1=O [pd088] ([Sar]I[NMeL][hPhe][NMeβAla][NMeA]V[NMeV][Abu][NMeF]T[NMeL]L[NMeD]-Piperidide; lactam N-14) | 20.9 µL/min/mg | 24.2 µL/min/mg Protein | 0.11 10^-6 cm/sec | 0.11 ×10⁻⁶ cm/s
CC[C@@H]1NC(=O)[C@H](Cc2ccccc2)N(C)C(=O)[C@H](COC(C)(C)C)NC(=O)[C@H](CC(C)C)N(C)C(=O)[C@H](C)N(C)C(=O)[C@H]([C@@H](C)O)NC(=O)[C@H](CC(C)C)N(C)C(=O)[C@H](C(C)C)N(C)C(=O)[C@H](CCc2ccccc2)NC(=O)[C@H](CC(C)C)N(C)C(=O)[C@@H](C(C)C)N(C)C(=O)C[C@@H](C(=O)N2CCCCC2)N(C)C(=O)[C@H](CC(C)C)NC(=O)[C@H](C(C)C)N(C)C1=O [pd089] ([dNMeV][NMeL][hPhe][NMeV][NMeL]T[NMeA][NMeL]S(tBu)[NMeF][Abu][NMeV]L[NMeD]-Piperidide; lactam N-14) | 29 µL/min/mg | 29.8 µL/min/mg Protein | <0.11 10^-6 cm/sec | < 0.11 ×10⁻⁶ cm/s
CC[C@@H]1NC(=O)[C@H](CC(C)C)N(C)C(=O)[C@H]([C@@H](C)O)NC(=O)[C@H](C(C)C)N(C)C(=O)[C@H](C)NC(=O)[C@H](Cc2ccccc2)N(C)C(=O)[C@@H](C(C)C)NC(=O)C[C@@H](C(=O)N2CCCCC2)N(C)C(=O)CN(C)C(=O)[C@H](Cc2ccccc2)N(C)C(=O)[C@H](C)N(C)C(=O)[C@H](COC(C)(C)C)NC(=O)[C@H](CC(C)C)N(C)C(=O)CN(C)C1=O [pd090] ([dV][NMeF]A[NMeV]T[NMeL][Abu][Sar][NMeL]S(tBu)[NMeA][NMeF][Sar][NMeD]-Piperidide; lactam N-14) | 45 µL/min/mg | 23.9 µL/min/mg Protein | <0.12 10^-6 cm/sec | < 0.12 ×10⁻⁶ cm/s
CC[C@@H]1NC(=O)[C@H](Cc2ccccc2)N(C)C(=O)[C@H](COC(C)(C)C)NC(=O)[C@H](CC(C)C)N(C)C(=O)[C@H](CC(C)C)NC(=O)[C@H](C)N(C)C(=O)C[C@@H](C(=O)N2CCCCC2)N(C)C(=O)[C@H](CC(C)C)N(C)C(=O)[C@H]([C@@H](C)CC)NC(=O)[C@H](Cc2ccccc2)N(C)C(=O)[C@H]([C@@H](C)O)N(C)C(=O)[C@H](CC)N(C)C(=O)[C@H](CC(C)C)NC(=O)CN(C)C1=O [pd091] ([NMeA]L[NMeL]S(tBu)[NMeF][Abu][Sar]L[NMeAbu][NMeT][NMeF]I[NMeL][NMeD]-Piperidide; lactam N-14) | 39.4 µL/min/mg | 36.1 µL/min/mg Protein | 0.11 10^-6 cm/sec | 0.11 ×10⁻⁶ cm/s
CC[C@H](C)[C@@H]1NC(=O)CN(C)C(=O)C[C@@H](C(=O)N2CCCCC2)N(C)C(=O)[C@H](C(C)C)NC(=O)[C@H](Cc2ccccc2)N(C)C(=O)[C@H](CC(C)C)N(C)C(=O)[C@H]([C@@H](C)O)NC(=O)[C@H](CC(C)C)N(C)C(=O)[C@H](CC(C)C)NC(=O)[C@H](C(C)C)N(C)C(=O)[C@H](C)N(C)C(=O)[C@H](CC(C)C)N(C)C(=O)[C@H](CCc2ccccc2)NC(=O)[C@H](CC(C)C)N(C)C1=O [pd092] ([Sar]I[NMeL][hPhe][NMeL][NMeA][NMeV]L[NMeL]T[NMeL][NMeF]V[NMeD]-Piperidide; lactam N-14) | 22 µL/min/mg | 26.3 µL/min/mg Protein | 0.09 10^-6 cm/sec | 0.09 ×10⁻⁶ cm/s
CC[C@H]1C(=O)N(C)[C@@H](C(C)C)C(=O)N[C@@H](CC(C)C)C(=O)N(C)[C@H](C(=O)N2CCCCC2)CC(=O)N(C)[C@H](C(C)C)C(=O)N(C)[C@@H](CC(C)C)C(=O)N[C@@H](CCc2ccccc2)C(=O)N(C)[C@@H](C(C)C)C(=O)N(C)[C@@H](CC(C)C)C(=O)N[C@@H]([C@@H](C)O)C(=O)N(C)[C@@H](C)C(=O)N(C)[C@@H](CC(C)C)C(=O)N[C@@H](COC(C)(C)C)C(=O)N(C)[C@@H](Cc2ccccc2)C(=O)N1C [pd093] ([dNMeV][NMeL][hPhe][NMeV][NMeL]T[NMeA][NMeL]S(tBu)[NMeF][NMeAbu][NMeV]L[NMeD]-Piperidide; lactam N-14) | 26.8 µL/min/mg | 20.4 µL/min/mg Protein | <0.14 10^-6 cm/sec | < 0.14 ×10⁻⁶ cm/s
CC[C@H]1C(=O)N(C)CC(=O)N(C)[C@@H](CC(C)C)C(=O)N[C@@H](COC(C)(C)C)C(=O)N(C)[C@@H](C)C(=O)N(C)[C@@H](Cc2ccccc2)C(=O)N(C)CC(=O)N(C)[C@H](C(=O)N2CCCCC2)CC(=O)N[C@H](C(C)C)C(=O)N(C)[C@@H](Cc2ccccc2)C(=O)NCCC(=O)N(C)[C@@H](C(C)C)C(=O)N[C@@H]([C@@H](C)O)C(=O)N(C)[C@@H](CC(C)C)C(=O)N1C [pd094] ([dV][NMeF][βAla][NMeV]T[NMeL][NMeAbu][Sar][NMeL]S(tBu)[NMeA][NMeF][Sar][NMeD]-Piperidide; lactam N-14) | 22.5 µL/min/mg | 16.7 µL/min/mg Protein | <0.13 10^-6 cm/sec | < 0.13 ×10⁻⁶ cm/s
